Data published in ChEMBL document CHEMBL1201862, “PubChem BioAssay data set” (2004).
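These data come from cells grown in 96-well plates and exposed to compound for 48 hours at five concentrations. Here, GI50 denotes the concentration required for 50% inhibition of growth.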 Activity calls are given as the source filed them. No stated cut-off is given here; in the data, active = GI50 up to about 1.1 µM and inactive = higher.

Tests used:
Assay in all cases: NCI tumour cell line growth inhibition, 48 h
K562 = tested on: K562
HL-60 = tested on: HL-60
DU-145 = tested on: DU-145
UACC-62 = tested on: UACC-62
OVCAR-4 = tested on: OVCAR-4
OVCAR-8 = tested on: OVCAR-8
UACC-257 = tested on: UACC-257
NCI-H23 = tested on: NCI-H23
SK-MEL-28 = tested on: SK-MEL-28
SK-MEL-5 = tested on: SK-MEL-5
HCC 2998 = tested on: HCC 2998
ACHN = tested on: ACHN
SF-539 = tested on: SF-539
UO-31 = tested on: UO-31
SNB-19 = tested on: SNB-19
A498 = tested on: A498
SK-OV-3 = tested on: SK-OV-3
OVCAR-3 = tested on: OVCAR-3
M14 = tested on: M14
A549 = tested on: A549

Compound	GI50 (K562)	GI50 (HL-60)	GI50 (DU-145)	GI50 (UACC-62)	GI50 (OVCAR-4)	GI50 (OVCAR-8)	GI50 (UACC-257)	GI50 (NCI-H23)	GI50 (SK-MEL-28)	GI50 (SK-MEL-5)	GI50 (HCC 2998)	GI50 (ACHN)	GI50 (SF-539)	GI50 (UO-31)	GI50 (SNB-19)	GI50 (A498)	GI50 (SK-OV-3)	GI50 (OVCAR-3)	GI50 (M14)	GI50 (A549)
CN(C)c1ccc(/C=C(\NC(=O)c2ccccc2)c2nn(C)c(=O)o2)cc1	> 100 µM (inactive)	34.6 µM (inactive)	> 100 µM (inactive)	> 100 µM (inactive)	28.9 µM (inactive)	26.7 µM (inactive)	33 µM (inactive)	> 100 µM (inactive)	> 100 µM (inactive)	26.3 µM (inactive)	> 100 µM (inactive)	> 100 µM (inactive)	33.5 µM (inactive)	> 100 µM (inactive)	28.1 µM (inactive)	> 100 µM (inactive)	> 100 µM (inactive)	43.9 µM (inactive)	46 µM (inactive)	> 100 µM (inactive)
CNc1ccc(C(=O)CC(O)CCC(C)C2OC(=O)CC(O)CC(=O)CC(O)CC(O)CC(O)CC(O)CC3(O)CC(O)C(C(=O)N4CCOCC4)C(CC(OC4OC(C)C(O)C(N)C4O)\C=C/C=C\C=C/C=C/C=C/C=C\C=C/C2C)O3)cc1 (stereo not given)	0.378 µM (active)	0.373 µM (active)	0.527 µM (active)	0.258 µM (active)	0.228 µM (active)	0.376 µM (active)	0.185 µM (active)	0.329 µM (active)	0.186 µM (active)	0.181 µM (active)	0.374 µM (active)	0.19 µM (active)	0.351 µM (active)	0.195 µM (active)	0.365 µM (active)	0.147 µM (active)	0.418 µM (active)	0.435 µM (active)	0.328 µM (active)	0.275 µM (active)
CN(C)CCOC1(CC2CCCCC2)CCC(C(C)(C)C)CC1 (stereo not given)	2.04 µM (inactive)	2.54 µM (inactive)	7.01 µM (inactive)	7.8 µM (inactive)	6.61 µM (inactive)	6.82 µM (inactive)	4.61 µM (inactive)	8.43 µM (inactive)	4.68 µM (inactive)	2.3 µM (inactive)	4.38 µM (inactive)	7.57 µM (inactive)	4.61 µM (inactive)	2.69 µM (inactive)	8.43 µM (inactive)	6.47 µM (inactive)	11.6 µM (inactive)	7.53 µM (inactive)	2.14 µM (inactive)	5.56 µM (inactive)
N#Cc1c(N2CCCC2)ncn(Cc2ccccc2)c1=S	> 100 µM (inactive)	> 100 µM (inactive)	86.3 µM (inactive)	68.7 µM (inactive)	44.2 µM (inactive)	57.1 µM (inactive)	> 100 µM (inactive)	> 100 µM (inactive)	> 100 µM (inactive)	> 100 µM (inactive)	> 100 µM (inactive)	> 92.7 µM (inactive)	40.1 µM (inactive)	> 100 µM (inactive)	58.5 µM (inactive)	40.6 µM (inactive)	> 100 µM (inactive)	60.5 µM (inactive)	> 100 µM (inactive)	> 100 µM (inactive)
Cc1ccc2c(c1C)-c1c(ccc(C)c1C)C(=O)C2=O	0.266 µM (active)	0.219 µM (active)	1.14 µM (inactive)	0.356 µM (active)	0.0459 µM (active)	0.253 µM (active)	1.37 µM (inactive)	0.53 µM (active)	0.92 µM (active)	0.367 µM (active)	3.7 µM (inactive)	0.625 µM (active)	0.21 µM (active)	0.625 µM (active)	0.881 µM (active)	1.87 µM (inactive)	2.15 µM (inactive)	0.296 µM (active)	0.679 µM (active)	0.887 µM (active)
